According to article PMC9696605 (Viruses, 2022):

Columns and labels:
[1] = system: KIR2DL2 positive NK cells vs 721.221-ICP47-C1 cells; assay: CAM cytotoxicity assay, 721.221-ICP47-C1 targets; assay type: cell-based, human; settings: NK cells from MS patients, 4 h, 26 °C, Figure 5c, MBP, pU24-6B, U24-7 p < 0.001, pU24-6A p: NS (Fisher exact test)
[2] = system: NK cells from MS patients co-cultured with 721.221-ICP47-C1 cells; assay: CD107a degranulation assay; assay type: cell-based, human; settings: 721.221-ICP47-C1 cells incubated with pU24-6A, Figure 5e; p < 0.01 (Fisher exact test)
hNedd4L-WW3* [3] = target: T1, hNedd4L-WW3* (Homo sapiens, UniProt Q96PU5); settings: binding to hNedd4L-WW3* domain, quoted from earlier work; ref 30 (Sang et al.); cited from earlier work
T1 construct: GST (N, cleaved yes); made in house; host or cells: E. coli BL21(DE3), pGEX-4T2
T1 sequence (Q96PU5 with tags, fused parts or gaps): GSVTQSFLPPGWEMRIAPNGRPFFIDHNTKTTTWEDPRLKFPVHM

hNedd4L-WW3* [4] = target: T1, hNedd4L-WW3*; settings: NMR titrations; cited from earlier work
Fyn-SH3 = Fyn-SH3 (Homo sapiens, UniProt P06241); settings: phosphorylated MBP; cited from earlier work
Sequence of Fyn-SH3 (P06241 with tags, fused parts or gaps): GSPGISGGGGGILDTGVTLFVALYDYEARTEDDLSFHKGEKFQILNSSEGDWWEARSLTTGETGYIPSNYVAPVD

actin = settings: cited from earlier work
[5] = cited from earlier work

Molecule | Killing of 721.221-ICP47-C1 cells by KIR2DL2 positive NK cells [1] | CD107a expression, KIR2DL2 positive vs negative NK cells [2] | ΔG° (hNedd4L-WW3* [3]) | ΔH° (hNedd4L-WW3* [3]) | ΔS° (hNedd4L-WW3* [3]) | hNedd4L-WW3* residue perturbed (hNedd4L-WW3* [4]) | Effect of MBP phosphorylation on interaction with Fyn-SH3 (Fyn-SH3) | Effect of MBP phosphorylation on actin polymerization and bundling (actin) | Effect of MBP phosphorylation on lipid interaction [5]
CSCC[C@H](N)C(=O)N[C@@H](CC(=O)O)C(=O)N1CCC[C@H]1C(=O)N1CCC[C@H]1C(=O)N[C@@H](CCCNC(=N)N)C(=O)N[C@H](C(=O)N1CCC[C@H]1C(=O)N1CCC[C@H]1C(=O)N1CCC[C@H]1C(=O)N[C@@H](CO)C(=O)N[C@@H](Cc1ccc(O)cc1)C(=O)N[C@@H](CO)C(=O)N[C@@H](CCC(=O)O)C(=O)N[C@H](C(=O)N[C@@H](CC(C)C)C(=O)O)C(C)C)[C@@H](C)OP(=O)(O)O [pU24-6A] | maintained KIR2DL2 positive NK cells unresponsive towards 721.221-ICP47-C1 cells | lower in KIR2DL2 positive NK cells in comparison with KIR2DL2 negative NK cells | (−3.49 ± 0.05)×10^1 kJ.mol^−1 | -14 ± 0.096 kcal/mol | -79.8 ± 0.9 J. mol^−1.K^−1 | R492 was found to be perturbed |  |  | 
MBP: myelin basic protein, a key component of the myelin sheath (IVTPRTPPPSQGKGR) | induced 721.221-ICP47-C1 cell killing |  |  |  |  |  | reduced interaction with Fyn-SH3 | decrease the ability of MBP to polymerize actin and to bundle actin filaments | decreases the interaction between MBP and lipids
